{
  "source": "paper PMC10671074",
  "about": "“Tumor Regression upon Intratumoral and Subcutaneous Dosing of the STING Agonist ALG-031048 in Mouse Efficacy Models” (International Journal of Molecular Sciences, 2023)",
  "key": {"[1]": {"system": "primary human immature dendritic cells", "assay": "Activation of primary human immature dendritic cells (CD83/CD86 flow cytometry)", "type": "cell-based", "conditions": "for Surface expression of CD86 and CD83 (in words): iDCs and, to a lesser degree, monocytes, 24 and 72 h; for EC50: iDCs, 72 h after stimulation", "excerpt": "Frozen human PBMCs (100 × 10^6 cells) were obtained from Stem Cell Technologies (Kent, WA, USA). Monocytes were purified from PBMCs using a CD14^+ pan-monocyte-negative isolation kit and an LS column (Miltenyi Biotec, Bergisch Gladbach, Germany). Magnetically labeled non-target cells were depleted by retaining them within a MACS column in the magnetic field of a MACS Separator, while highly purified unlabeled CD1 D16^− cells were collected and used to generate dendritic cells. To obtain immature monocyte-derived dendritic cells (iMDDCs), enriched monocytes were cultured in Mo-DC differentiation medium (Miltenyi Biotec) supplemented with human IL-4 (250 IU/mL, Miltenyi Biotec) and human GM-CSF (800 IU/mL, Miltenyi Biotec) at 37 °C in a T-150 flask in a 5% CO2 humidified incubator for 5 days; fresh media was replenished every 2–3 days.\n[…] An aliquot of iMDDCs was also cultured in maturation media for 24–48 h and used as a control containing RPMI 1640, 10% FBS, 2 mM L-glutamine, and human TNF-α (6000 IU/mL, Miltenyi Biotec). The supernatant from the plate was frozen to assess cytokine production, and cells were analyzed via flow cytometry.\nCells were incubated with phosphate-buffered saline (PBS) containing 2% FBS and 2 mM of EDTA (FACS buffer) supplemented with 2 mg/mL of normal human IgG on ice for 15 min to block Fc receptors. The cell suspension was then incubated with a predetermined optimal concentration of the appropriate fluorescent dye-labeled monoclonal antibodies (mAbs) against human cell surface markers on ice for 30 min. The fluorescent dye-labeled mAbs against human cell surface molecules included anti-CD209, anti-CD14, anti-CD11c, anti-CD40, anti-HLA-DR, anti-CD86, and anti-CD83 (BD Biosciences, Franklin Lakes, NJ, USA or BioLegend, San Diego, CA, USA). In addition, a fixable live/dead stain (Thermo Fisher Scientific) at a dilution of 1:1000 was added to exclude dead cells. After several washes with FACS buffer, cells were resuspended in FACS buffer and analyzed on an Attune Nxt flow cytometer (Thermo Fisher Scientific) with FlowJo v10 software (BD Biosciences). An aliquot of the cells to be analyzed served as controls by using “fluorescent minus-one” to establish gates and determine the frequency of positively stained cells. Ultra-comp beads (Thermo Fisher Scientific) were used as single-stained controls to set up compensation on the flow cytometer."}, "[2]": {"assay": "Plasma stability, mouse", "type": "in vitro ADME", "conditions": "37 °C, read-out: Plasma t½, Mouse", "procedure": "(§1) The plasma stability assay was carried out on 96-well microtiter plates. The test compounds at 5 µM and the reference compound (propantheline) at 1 µM final concentration were incubated separately at 37 °C with mouse or human plasma for 0, 30, 60, and 240 min. At the end of each incubation time point, 300 μL of the quenching solution (50% acetonitrile, 50% methanol, and 0.05% formic acid) containing the internal standard was added to each well. The incubation plates were sealed, vortexed, and centrifuged at 4 °C for 15 min at 4000 rpm. The supernatant was transferred to fresh plates for LC/MS/MS analysis of the test compounds. The peak area ratios of each test compound over the internal standard were plotted against incubation time, and the t½ was calculated from the curve assuming first-order kinetics."}, "[3]": {"assay": "Plasma stability, human", "type": "in vitro ADME", "conditions": "37 °C, read-out: Plasma t½, Human", "procedure": "as §1"}, "[4]": {"system": "subcutaneous CT26 tumors", "assay": "CT26 mouse colon carcinoma model", "conditions": "Table 2 study, 3 × q3d; for Median Time to Endpoint: vehicle 19.0"}, "[5]": {"assay": "Liver microsomal stability, human", "type": "in vitro ADME", "conditions": "pH 7.4, 0.5 mg/mL human liver microsomes, 37 °C, read-out: Liver Microsome t½, Human", "procedure": "(§2) The liver microsomal stability assay was carried out in 96-well microtiter plates. The test compounds at 5 µM and the reference compound (verapamil) at 1 µM final concentration were incubated separately at 37 °C with 0.5 mg/mL liver microsomes, with or without 1 mM NADPH in 100 mM potassium phosphate buffer, pH 7.4 with 3.3 mM MgCl2. […] At each of the time points (0, 15, 30, and 60 min), the enzymatic reaction was terminated with the addition of 150 μL of quenching solution (100% acetonitrile, 0.1% formic acid, and the internal standard), and subsequently the mixtures were vortexed vigorously for 20 min and centrifuged at 4000 rpm at 10 °C. The supernatants (80 µL) were transferred to a clean 96-well plate and analyzed via LC/MS/MS. The peak area ratios of each test compound over the internal standard were plotted against incubation time, and the t½ was calculated from the curve assuming first-order kinetics."}, "[6]": {"system": "primary human monocytes", "assay": "Activation of primary human monocytes (CD83/CD86 flow cytometry)", "type": "cell-based", "conditions": "Monocyte, 24 h after stimulation", "excerpt": "Frozen human PBMCs (100 × 10^6 cells) were obtained from Stem Cell Technologies (Kent, WA, USA). Monocytes were purified from PBMCs using a CD14^+ pan-monocyte-negative isolation kit and an LS column (Miltenyi Biotec, Bergisch Gladbach, Germany). Magnetically labeled non-target cells were depleted by retaining them within a MACS column in the magnetic field of a MACS Separator, while highly purified unlabeled CD1 D16^− cells were collected and used to generate dendritic cells.\nThe cell suspension was then incubated with a predetermined optimal concentration of the appropriate fluorescent dye-labeled monoclonal antibodies (mAbs) against human cell surface markers on ice for 30 min. The fluorescent dye-labeled mAbs against human cell surface molecules included anti-CD209, anti-CD14, anti-CD11c, anti-CD40, anti-HLA-DR, anti-CD86, and anti-CD83 (BD Biosciences, Franklin Lakes, NJ, USA or BioLegend, San Diego, CA, USA). In addition, a fixable live/dead stain (Thermo Fisher Scientific) at a dilution of 1:1000 was added to exclude dead cells. After several washes with FACS buffer, cells were resuspended in FACS buffer and analyzed on an Attune Nxt flow cytometer (Thermo Fisher Scientific) with FlowJo v10 software (BD Biosciences). An aliquot of the cells to be analyzed served as controls by using “fluorescent minus-one” to establish gates and determine the frequency of positively stained cells. Ultra-comp beads (Thermo Fisher Scientific) were used as single-stained controls to set up compensation on the flow cytometer."}, "[7]": {"conditions": "early clinical trial, patients; cited from earlier work"}, "[8]": {"assay": "Liver microsomal stability, mouse", "type": "in vitro ADME", "conditions": "pH 7.4, 0.5 mg/mL mouse liver microsomes, 37 °C, read-out: Liver Microsome t½, Mouse", "procedure": "as §2"}, "[9]": {"system": "MC38-hPD-L1 tumors", "assay": "MC38-hPD-L1 mouse colon carcinoma model", "type": "in vivo", "conditions": "5 mg/kg IP, BIW (4×)", "excerpt": "Female C57/BL6 mice (Shanghai Lingchang Biotechnology Co., Ltd., Shanghai, China) were 5 to 8 weeks old with a body weight > 16 g at the time of inoculation. Animals were housed and fed as described above.\nAfter inoculation with tumor cells, the animals were checked daily for morbidity and mortality. During routine monitoring, the animals were checked for any effects of tumor growth or test articles on behavior such as mobility, food and water consumption, body weight gain/loss (body weights were measured twice per week after randomization), eye/hair matting, and any other abnormalities. Tumor volumes were measured and calculated as described above.\nEach group consisted of 10 animals. The control group was administered 5 mg/kg isotype control antibody in a volume of 10 μL/g of IP, BIW for 2.5 weeks, 5 doses total. The atezolizumab-treated group was administered 5 mg/kg in a volume of 10 μL/g of IP, BIW for 2.5 weeks, 5 doses total. […] Dosing started when average tumor volumes were 70 mm^3."}},
  "note": "Where two headings read alike, the source gives them in different places. Marks after values point to notes of the source that are not given here.",
  "data": [
    {"compound": "Nc1nc2c(ncn2[C@@H]2O[C@@H]3COP(=O)(O)O[C@H]4[C@@H](O)[C@H](n5cnc6c(N)ncnc65)O[C@@H]4COP(=O)(O)O[C@@H]2[C@@H]3O)c(=O)[nH]1", "note": "[2′3′ cGAMP, 2′3′ cyclic guanosine monophosphate–adenosine monophosphate]", "values": [
      {"measurement": "Surface expression of CD86 and CD83 (in words)", "setting": "[1]", "value": "upregulated the surface expression of CD86 and CD83"},
      {"measurement": "EC50", "setting": "[1]; read-out: EC50 CD83, Immature Dendritic Cells", "value": 3, "unit": "µM"},
      {"measurement": "EC50", "setting": "[1]; read-out: EC50 CD86, Immature Dendritic Cells", "value": 7, "unit": "µM"},
      {"measurement": "half-life at 5 µM", "setting": "[2]", "value": 7.2, "unit": "min"},
      {"measurement": "half-life at 5 µM", "setting": "[3]", "value": 12.8, "unit": "min"}
    ]},
    {"compound": "Nc1ncnc2c1ncn2[C@@H]1O[C@@H]2CO[P@@](=O)(S)O[C@@H]3[C@H](O)[C@@H](CO[P@@](=O)(S)O[C@H]2[C@H]1O)O[C@H]3n1cnc2c(N)ncnc21", "note": "[ADU-S100]", "values": [
      {"measurement": "Animals with tumor regression by end of study", "setting": "[4]; 25 μg IT, Day 40", "value": "1 of 10"},
      {"measurement": "Delayed Response (TV > 10 and <2000 mm^3)", "setting": "[4]; 25 μg IT, n = 10", "value": 40, "unit": "% ^a"},
      {"measurement": "Treatment Failure (TV > 2000 mm^3)", "setting": "[4]; 25 μg IT, n = 10", "value": 50, "unit": "% ^a"},
      {"measurement": "Complete Response (TV < 10 mm^3)", "setting": "[4]; 25 μg IT, n = 10, BALB/c, end of study Day 40", "value": 10, "unit": "% ^a"},
      {"measurement": "Median Time to Endpoint", "setting": "[4]; 25 μg IT, n = 10", "value": 36.5, "unit": "days"},
      {"measurement": "Delayed Response (TV > 10 and <2000 mm^3)", "setting": "[4]; 100 μg IT, n = 10", "value": 10, "unit": "% ^b"},
      {"measurement": "Median Time to Endpoint", "setting": "[4]; 100 μg IT, n = 10", "value": 40.0, "unit": "days"},
      {"measurement": "EC50", "setting": "[1]; Homo sapiens, Dendritic cell, read-out: EC50 CD83, Immature Dendritic Cells", "value": 8, "unit": "µM"},
      {"measurement": "EC50", "setting": "[1]; Homo sapiens, Dendritic cell, read-out: EC50 CD86, Immature Dendritic Cells", "value": 25, "unit": "µM"},
      {"measurement": "Surface expression of CD86 and CD83 (in words)", "setting": "[1]", "value": "upregulated the surface expression of CD86 and CD83"},
      {"measurement": "half-life at 5 µM", "setting": "[2]", "value": "> 60", "unit": "min"},
      {"measurement": "half-life at 5 µM", "setting": "[5]", "value": "> 480", "unit": "min"},
      {"measurement": "EC50", "setting": "[6]; read-out: EC50 CD83, Monocytes", "value": 3.9, "unit": "µM"},
      {"measurement": "EC50", "setting": "[6]; read-out: EC50 CD86, Monocytes", "value": 0.49, "unit": "µM"},
      {"measurement": "terminal t½", "setting": "[7]", "value": "10 to 23", "unit": "min"},
      {"measurement": "half-life at 5 µM", "setting": "[3]", "value": "> 60", "unit": "min"},
      {"measurement": "half-life at 5 µM", "setting": "[8]", "value": "> 480", "unit": "min"}
    ]},
    {"compound": "Atezolizumab: anti-human PD-L1 antibody atezolizumab biosimilar provided by Crownbio [reference compound]", "values": [
      {"measurement": "Tumor Reduction vs. Group 1 (vehicle)", "setting": "[9]; Day 11", "value": 53.7, "unit": "%"},
      {"measurement": "TV on Day 11 (Median)", "setting": "[9]; n = 10, vehicle 2268", "value": 1050, "unit": "mm^3"}
    ]}
  ]
}
